Measurements taken from US20180303940A1, “LIPOSOME PRODUCTION USING ISOPROPANOL” (GLAXOSMITHKLINE BIOLOGICALS, S.A., priority 2011, published 2018).

Test: Cholesterol solubility in solvents at saturation (dry residue weighed)
Format: physicochemical
Details: 50° C.
Method: 3 solvent compared: Ethanol , Isopropanol, Heptane
Cholesterol was progressively added to each solvent at 50° C. up to saturation of the solution
Once saturation is achieved, a sample of the solution is taken and the solvent is evaporated with a rotary evaporator and/or in an oven. Dry residue of cholesterol is weighed to determine the solubility value

cholesterol solubility in ethanol (ethanol): 6.7% | cholesterol solubility in heptane (heptane): 4.3% | cholesterol solubility in isopropanol (isopropanol): 12.1%
SMILES: CC(C)CCC[C@@H](C)[C@H]1CC[C@H]2[C@@H]3CC=C4C[C@@H](O)CC[C@]4(C)[C@H]3CC[C@]12C [cholesterol, (3β)-cholest-5-en-3-ol]
